“And” between values parts separate entries of the source, which are not always exact repeats. Equal entries are not always repeated.
Tests used:
Aspergillus niger = test: Fungal evaluation: growth prevention of Aspergillus niger in mineral salts-glucose medium, synergism by the method of Kull; assay type: cell-based; settings: for X (QA/Qa+QB/Qb), Test 1 / X (QA/Qa+QB/Qb), Test 2 / X (QA/Qa+QB/Qb), Test 3: combination of S-chloromethyl-S'-hexylcyanodithioimidocarbimate (A) with the named second microbicide (B), Aspergillus niger, 7 days, 25° C., X<1 synergistic, X=1 additive, X>1 antagonistic; for QA = lowest concentration of compound A in the mixture which produced an end point: compound A in mixture with the named compound B; for Qb = lowest concentration of compound B acting alone which produced an end point: named compound B alone; for QB = lowest concentration of compound B in the mixture which produced an end point: named compound B in mixture with compound A
Experimental: Mineral salts-glucose medium was used. To prepare the medium, the following ingredients were added to 1 liter of deionized water: 0.7 g of KH2PO4; 0.7 g of MgSO4·7H2O; 1.0 g of HN4NO3; 0.005 g of NaCl; 0.002 g of FeSO4·7H2O; 0.002 g ZnSO4·7H2O; 0.001 g of MnSO4·7H2O; 10 g of Glucose. The pH of the medium was adjusted to 6 with 1N NaOH. The medium was distributed in 5 ml amounts in test tubes and autoclaved at 121° C. for 20 minutes. The fungus, Aspergillus niger, was grown on potato dextrose agar slant for 5 to 10 days and a spore suspension prepared by washing down the spores from the slant into a sterile saline solution. After addition of the biocides in the desired concentrations in the sterile mineral salts-glucose medium, the fungal spore suspension was added. The final spore concentration was approximately 10^6 cfu/ml. The inoculated media was incubated at 25° C. for 7 days. The experimental design is termed a […] in which each test concentration of compound A is combined with each test concentration of compound B.
End points for the various mixtures were then compared with the end points for the pure active ingredients alone in concomitantly prepared flasks or test tubes.
When the sum of QA/Qa and QB/Qb is greater than one, antagonism is indicated. When the sum is equal to one, additivity is indicated. When the sum is less than one, synergism exists.
For: X<1 A and B are synergistic • X=1 A and B are additive • X>1 A and B are antagonistic For combinations of cyanodithiocarbimate with the selected second microbicide, the calculated values of X in each case are: […]

[1] = cited from earlier work
[2] = complete prevention of growth of Aspergillus niger for seven days

Row | Compound | X (QA/Qa+QB/Qb), Test 1 (Aspergillus niger) | QA = lowest concentration of compound A in the mixture which produced an end point (Aspergillus niger; [2]) [ppm active ingredient] | Qb = lowest concentration of compound B acting alone which produced an end point (Aspergillus niger; [2]) [ppm active ingredient] | QB = lowest concentration of compound B in the mixture which produced an end point (Aspergillus niger; [2]) [ppm active ingredient] | X (QA/Qa+QB/Qb), Test 2 (Aspergillus niger) | solubility in water [1] | X (QA/Qa+QB/Qb), Test 3 (Aspergillus niger) | Qa = concentration of compound A acting alone which produced an end point (Aspergillus niger; compound A alone, run concomitantly with the compound B, complete prevention of growth of Aspergillus niger for seven days)
1 | CCCCCCCCn1sccc1=O [2-N-octyl-4-isothiazolin-3-one] | 0.64 | 0.1 | >0.175 | 0.025 | – | – | – | –
2 | CCCCCCCCn1sc(Cl)c(Cl)c1=O [4,5-dichloro-2-N-octyl-4-isothiazolin-3-one] | 0.7 | 0.05 | 0.2 | 0.1 | 0.5 | – | – | –
3 | O=C(CBr)OC/C=C\COC(=O)CBr [BBAB, 1,4-bis(bromoacetoxy)-2-butene] | – | – | – | – | – | extremely low | – | –
4 | O=C(CBr)c1ccc(O)cc1 [BHAP, 2-bromo-4′-hydroxyacetophenone] | 1.22 | 0.3 | >8.0 | 1.0 | 1.0 | – | 0.8 | –
5 | CCCCCCSC(=NC#N)SCCl [Compound A, S-Hexyl-S′-chloromethylcyanodithiocarbimate] | – | – | – | – | – | – | – | 0.3 ppm active ingredient and 0.25 ppm active ingredient and 0.175 ppm active ingredient and 0.35 ppm active ingredient and 0.2 ppm active ingredient
6 | CCCCNC(=O)OCC#CI [IPBC, 3-iodo-2-propynyl butyl carbamate] | 0.86 | 0.025 | 0.35 | 0.05 | 0.3 | – | – | –
7 | N#CSCSC#N [MTC, Methylene-bis(thiocyanate)] | 0.64 | 0.05 | >0.7 | 0.1 | 0.46 | – | 0.29 | –
8 | N#CSCSc1nc2ccccc2s1 [TCMTB, 2-(Thiocyanomethylthio)benzothiazole] | 0.27 | 0.15 | 1.0 | 0.05 | 0.25 | – | 0.7 | –

From patent US7772156B2, “Microbicidal compositions including a cyanodithiocarbimate and a second microbicide, and methods of using the same” (Buckman Laboratories International, Inc., priority 2006, dated 2010)
